Assay results: US9340590B2 (priority 2011, dated 2016)
Where two headings read alike, the source gives them in different places. Positions of bridges follow the written chain, without caps; N, C: chain ends. Non-standard residues stand in square brackets, D forms with d. Residues, ends and D or L forms follow the SMILES beside them. Phe(2-Cl) = N[C@@H](Cc1ccccc1Cl)C(=O)O; 2Pal = N[C@@H](Cc1ccccn1)C(=O)O

Key:
Assay in all cases: cell-based
hNav1.7 = hNav1.7 (Homo sapiens, UniProt Q15858); format: cell-based; conditions: IonWorks Quattro, read-out: IWQ Use Nav1.7
hNav1.5 = hNav1.5 (Homo sapiens, UniProt Q14524); conditions: IonWorks Quattro, read-out: IWQ Use Nav1.5
hNav1.3 = hNav1.3 (Homo sapiens, UniProt Q9NY46); conditions: IonWorks Quattro, read-out: IWQ Use Nav1.3
[1] = clamped to −110 mV, depolarized to −10 mV, 5 min after compound, n=2

Sequence of hNav1.5 (Q14524 whole entry, looked up): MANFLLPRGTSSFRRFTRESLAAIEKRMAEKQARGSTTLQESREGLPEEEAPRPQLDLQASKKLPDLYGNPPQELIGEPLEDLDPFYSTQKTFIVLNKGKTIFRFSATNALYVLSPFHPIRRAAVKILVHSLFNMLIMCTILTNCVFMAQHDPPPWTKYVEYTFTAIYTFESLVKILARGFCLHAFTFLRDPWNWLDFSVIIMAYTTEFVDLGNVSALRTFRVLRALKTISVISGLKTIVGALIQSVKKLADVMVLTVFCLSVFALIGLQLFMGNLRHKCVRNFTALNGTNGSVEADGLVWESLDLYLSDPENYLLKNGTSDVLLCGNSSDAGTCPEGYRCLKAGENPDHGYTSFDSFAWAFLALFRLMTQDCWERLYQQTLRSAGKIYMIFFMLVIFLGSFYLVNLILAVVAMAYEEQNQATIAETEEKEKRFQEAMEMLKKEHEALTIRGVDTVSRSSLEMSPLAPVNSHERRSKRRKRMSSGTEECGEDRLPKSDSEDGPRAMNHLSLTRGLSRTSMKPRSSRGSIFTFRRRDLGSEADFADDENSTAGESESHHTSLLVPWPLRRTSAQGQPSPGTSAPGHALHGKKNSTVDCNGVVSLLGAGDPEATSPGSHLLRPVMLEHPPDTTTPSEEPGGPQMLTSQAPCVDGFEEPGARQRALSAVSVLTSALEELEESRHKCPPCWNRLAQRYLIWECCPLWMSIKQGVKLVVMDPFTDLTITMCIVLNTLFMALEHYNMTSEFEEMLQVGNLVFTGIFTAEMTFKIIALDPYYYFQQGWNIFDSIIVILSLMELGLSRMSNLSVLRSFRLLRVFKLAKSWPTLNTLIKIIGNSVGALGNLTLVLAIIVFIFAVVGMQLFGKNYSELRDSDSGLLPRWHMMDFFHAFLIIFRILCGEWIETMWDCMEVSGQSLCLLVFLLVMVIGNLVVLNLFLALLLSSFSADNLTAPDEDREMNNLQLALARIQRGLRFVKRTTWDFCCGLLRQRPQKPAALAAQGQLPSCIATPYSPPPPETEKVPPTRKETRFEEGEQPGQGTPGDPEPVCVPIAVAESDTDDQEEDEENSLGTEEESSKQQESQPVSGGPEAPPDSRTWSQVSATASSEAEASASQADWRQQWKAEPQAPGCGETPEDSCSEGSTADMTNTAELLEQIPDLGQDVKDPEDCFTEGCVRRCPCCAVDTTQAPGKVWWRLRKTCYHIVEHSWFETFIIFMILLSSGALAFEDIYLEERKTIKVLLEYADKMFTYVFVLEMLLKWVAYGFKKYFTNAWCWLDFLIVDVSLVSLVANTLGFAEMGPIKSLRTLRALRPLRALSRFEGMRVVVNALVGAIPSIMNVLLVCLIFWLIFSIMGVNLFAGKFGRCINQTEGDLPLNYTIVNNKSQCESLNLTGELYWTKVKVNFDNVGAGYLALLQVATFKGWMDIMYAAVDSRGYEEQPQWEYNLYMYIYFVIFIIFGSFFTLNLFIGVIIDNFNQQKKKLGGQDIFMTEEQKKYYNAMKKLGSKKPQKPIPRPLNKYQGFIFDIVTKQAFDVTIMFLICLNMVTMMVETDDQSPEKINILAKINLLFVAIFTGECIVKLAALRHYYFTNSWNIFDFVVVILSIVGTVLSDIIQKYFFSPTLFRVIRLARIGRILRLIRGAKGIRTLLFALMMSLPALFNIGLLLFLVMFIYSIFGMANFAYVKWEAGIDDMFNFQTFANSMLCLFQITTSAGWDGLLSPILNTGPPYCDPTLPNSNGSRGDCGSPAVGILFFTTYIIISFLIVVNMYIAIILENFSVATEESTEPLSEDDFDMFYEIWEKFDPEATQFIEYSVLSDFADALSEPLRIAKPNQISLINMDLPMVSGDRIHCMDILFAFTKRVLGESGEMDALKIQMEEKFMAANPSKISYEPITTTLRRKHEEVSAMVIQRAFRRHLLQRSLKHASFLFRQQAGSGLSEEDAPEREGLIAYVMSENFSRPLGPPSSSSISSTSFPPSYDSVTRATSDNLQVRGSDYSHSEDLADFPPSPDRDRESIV
Sequence of hNav1.3 (Q9NY46 whole entry, looked up): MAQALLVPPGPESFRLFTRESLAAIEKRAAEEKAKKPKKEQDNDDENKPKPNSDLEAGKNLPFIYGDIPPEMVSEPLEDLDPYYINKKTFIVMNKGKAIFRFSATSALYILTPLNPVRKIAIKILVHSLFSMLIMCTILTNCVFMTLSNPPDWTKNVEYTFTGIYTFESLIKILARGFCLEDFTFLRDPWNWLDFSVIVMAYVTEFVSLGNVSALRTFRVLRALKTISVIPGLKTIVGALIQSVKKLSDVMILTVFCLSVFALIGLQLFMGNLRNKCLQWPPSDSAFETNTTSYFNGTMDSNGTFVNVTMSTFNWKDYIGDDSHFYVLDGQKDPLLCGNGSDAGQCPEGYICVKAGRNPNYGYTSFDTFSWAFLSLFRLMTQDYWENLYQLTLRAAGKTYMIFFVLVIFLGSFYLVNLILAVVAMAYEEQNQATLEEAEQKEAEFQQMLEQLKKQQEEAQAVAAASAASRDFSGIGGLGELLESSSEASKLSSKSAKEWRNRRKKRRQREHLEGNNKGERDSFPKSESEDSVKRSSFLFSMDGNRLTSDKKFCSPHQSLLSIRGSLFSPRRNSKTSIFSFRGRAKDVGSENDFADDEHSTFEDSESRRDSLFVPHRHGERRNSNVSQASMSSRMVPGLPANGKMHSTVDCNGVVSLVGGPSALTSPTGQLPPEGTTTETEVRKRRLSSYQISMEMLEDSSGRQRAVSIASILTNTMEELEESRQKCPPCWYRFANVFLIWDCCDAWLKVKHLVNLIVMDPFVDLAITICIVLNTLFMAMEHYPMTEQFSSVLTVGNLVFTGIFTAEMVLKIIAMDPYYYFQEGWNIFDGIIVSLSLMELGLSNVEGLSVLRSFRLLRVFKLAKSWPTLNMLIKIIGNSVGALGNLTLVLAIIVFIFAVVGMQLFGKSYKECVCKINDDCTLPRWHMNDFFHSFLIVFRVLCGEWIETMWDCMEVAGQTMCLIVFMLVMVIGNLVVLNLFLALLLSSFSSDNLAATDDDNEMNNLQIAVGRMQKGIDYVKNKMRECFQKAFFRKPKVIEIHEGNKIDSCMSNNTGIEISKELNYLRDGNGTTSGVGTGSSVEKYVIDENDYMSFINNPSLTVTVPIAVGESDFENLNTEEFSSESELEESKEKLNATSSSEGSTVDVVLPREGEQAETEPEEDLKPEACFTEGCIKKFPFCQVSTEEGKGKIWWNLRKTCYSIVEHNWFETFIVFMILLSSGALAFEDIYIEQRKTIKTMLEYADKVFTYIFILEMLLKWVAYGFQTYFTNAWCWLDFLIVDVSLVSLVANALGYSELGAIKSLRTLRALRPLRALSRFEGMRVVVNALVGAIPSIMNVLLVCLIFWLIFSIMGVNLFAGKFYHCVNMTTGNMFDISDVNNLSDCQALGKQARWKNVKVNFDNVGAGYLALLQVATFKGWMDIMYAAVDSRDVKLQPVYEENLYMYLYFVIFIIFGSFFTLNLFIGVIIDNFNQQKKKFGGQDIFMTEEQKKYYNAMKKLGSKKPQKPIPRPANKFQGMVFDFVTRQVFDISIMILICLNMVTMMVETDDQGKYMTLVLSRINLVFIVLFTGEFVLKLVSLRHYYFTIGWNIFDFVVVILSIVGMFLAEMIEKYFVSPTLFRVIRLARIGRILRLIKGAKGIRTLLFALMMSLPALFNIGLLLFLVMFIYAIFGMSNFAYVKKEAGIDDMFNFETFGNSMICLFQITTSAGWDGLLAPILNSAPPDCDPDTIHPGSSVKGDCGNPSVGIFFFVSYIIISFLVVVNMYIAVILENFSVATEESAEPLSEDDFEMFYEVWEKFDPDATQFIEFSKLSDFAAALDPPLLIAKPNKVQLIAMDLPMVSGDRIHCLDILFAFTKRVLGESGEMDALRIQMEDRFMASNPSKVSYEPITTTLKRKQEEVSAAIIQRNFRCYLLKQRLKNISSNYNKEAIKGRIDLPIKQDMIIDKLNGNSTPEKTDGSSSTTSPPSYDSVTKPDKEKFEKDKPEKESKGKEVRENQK

For CC[C@H](C)[C@@H]1NC(=O)[C@@H]2CSSC[C@@H]3NC(=O)[C@H](C(C)C)NC(=O)[C@H](CC(C)C)NC(=O)[C@H](CC(N)=O)NC(=O)[C@@H]4CCCN4C(=O)[C@H](CCCNC(=N)N)NC(=O)[C@H](CSSC[C@H](NC(=O)[C@@H](N)CC(=O)O)C(=O)N[C@@H](CC(C)C)C(=O)NCC(=O)N[C@@H](Cc4ccccc4)C(=O)N[C@@H](CCSC)C(=O)N[C@@H](CCCNC(=N)N)C(=O)N[C@@H](CCCCN)C(=O)N2)NC(=O)[C@H](CSSC[C@@H](C(=O)N[C@@H](CCC(=O)O)C(=O)N[C@@H](Cc2ccc(O)cc2)C(=O)N[C@H](C(=O)N[C@@H](Cc2ccccc2)C(N)=O)C(C)C)NC(=O)[C@H](Cc2c[nH]c4ccccc24)NC(=O)[C@H](CCCCN)NC(=O)[C@H](Cc2cnc[nH]2)NC(=O)[C@H]([C@@H](C)O)NC(=O)[C@H](CCCNC(=N)N)NC(=O)[C@H](CO)NC3=O)NC(=O)[C@H](CCCCN)NC(=O)[C@H](CC(=O)O)NC(=O)[C@H](CC(N)=O)NC(=O)[C@H](CC(=O)O)NC(=O)[C@@H]2CCCN2C1=O [compound 31] (H-DCLGFMRKCIPDNDKCCRPNLVCSRTHKWCEYVF-NH2; disulfide 2-17, 9-23, 16-30), the IC50 (hNav1.7; Table 25, use, […]) was 23 µM, the IC50 (hNav1.5; Table 25, use, […]) was 21.7 µM and the IC50 (hNav1.3; Table 25, use, […]) was 13.1 µM.
With CC[C@H](C)[C@@H]1NC(=O)[C@@H]2CSSC[C@@H]3NC(=O)[C@H](C(C)C)NC(=O)[C@H](CC(C)C)NC(=O)[C@H](CC(N)=O)NC(=O)[C@@H]4CCCN4C(=O)[C@H](CCCNC(=N)N)NC(=O)[C@H](CSSC[C@H](NC(=O)[C@@H](N)CC(=O)O)C(=O)N[C@@H](CC(C)C)C(=O)NCC(=O)N[C@@H](c4ccccc4)C(=O)N[C@@H](CCSC)C(=O)N[C@@H](CCCNC(=N)N)C(=O)N[C@@H](CCCCN)C(=O)N2)NC(=O)[C@H](CSSC[C@@H](C(=O)N[C@@H](CCCCN)C(=O)N[C@@H](Cc2ccc(O)cc2)C(=O)N[C@H](C(=O)N[C@@H](Cc2ccccc2)C(N)=O)C(C)C)NC(=O)[C@H](Cc2c[nH]c4ccccc24)NC(=O)[C@H](CCCCN)NC(=O)[C@H](Cc2c[nH]cn2)NC(=O)[C@H]([C@@H](C)O)NC(=O)[C@H](CCCNC(=N)N)NC(=O)[C@H](CO)NC3=O)NC(=O)[C@H](CCCCN)NC(=O)[C@H](CC(=O)O)NC(=O)[C@H](CC(N)=O)NC(=O)[C@H](CC(=O)O)NC(=O)[C@@H]2CCCN2C1=O [SEQ ID NO: 275] the IC50 (hNav1.7; [1]) was 0.09 µM, the IC50 (hNav1.5; [1]) was over 5 µM and the IC50 (hNav1.3; [1]) was 0.17 µM.
CC[C@H](C)[C@@H]1NC(=O)[C@@H]2CSSC[C@@H]3NC(=O)[C@H](C(C)C)NC(=O)[C@H](CC(C)C)NC(=O)[C@H](CC(N)=O)NC(=O)[C@@H]4CCCN4C(=O)[C@H](CCCNC(=N)N)NC(=O)[C@H](CSSC[C@H](NC(=O)[C@@H](N)CC(=O)O)C(=O)N[C@@H](CC(C)C)C(=O)NCC(=O)N[C@@H](C)C(=O)N[C@@H](Cc4ccccc4)C(=O)N[C@@H](CCCNC(=N)N)C(=O)N[C@@H](CCCCN)C(=O)N2)NC(=O)[C@H](CSSC[C@@H](C(=O)N[C@@H](CCCCN)C(=O)N[C@@H](Cc2ccc(O)cc2)C(=O)N[C@H](C(=O)N[C@@H](Cc2ccccc2)C(=O)O)C(C)C)NC(=O)[C@H](Cc2c[nH]c4ccccc24)NC(=O)[C@H](CCCCN)NC(=O)[C@H](Cc2c[nH]cn2)NC(=O)[C@H]([C@@H](C)O)NC(=O)[C@H](CCCNC(=N)N)NC(=O)[C@H](CO)NC3=O)NC(=O)[C@H](CCCCN)NC(=O)[C@H](CC(=O)O)NC(=O)[C@H](CC(N)=O)NC(=O)[C@H](CC(=O)O)NC(=O)[C@@H]2CCCN2C1=O [compound 829] (H-DCLGAFRKCIPDNDKCCRPNLVCSRTHKWCKYVF-OH; disulfide 2-17, 9-23, 16-30) gave an IC50 (hNav1.7; use-dependent block, hNav1.7) of over 5 µM, an IC50 (hNav1.5; use-dependent block, hNav1.5) of over 5 µM and an IC50 (hNav1.3; use-dependent block, hNav1.3) of 2.3 µM.
With CC[C@H](C)[C@@H]1NC(=O)[C@@H]2CSSC[C@@H]3NC(=O)[C@H](C(C)C)NC(=O)[C@H](CC(C)C)NC(=O)[C@H](CC(N)=O)NC(=O)[C@@H]4CCCN4C(=O)[C@H](CCCNC(=N)N)NC(=O)[C@H](CSSC[C@H](NC(=O)[C@@H](N)CC(=O)O)C(=O)N[C@@H](CC(C)C)C(=O)NCC(=O)N[C@@H](Cc4ccccc4Cl)C(=O)N[C@@H](Cc4ccccc4)C(=O)N[C@@H](CCCNC(=N)N)C(=O)N[C@@H](CCCCN)C(=O)N2)NC(=O)[C@H](CSSC[C@@H](C(=O)N[C@@H](CCCCN)C(=O)N[C@@H](Cc2ccc(O)cc2)C(=O)N[C@H](C(=O)N[C@@H](Cc2ccccc2)C(N)=O)C(C)C)NC(=O)[C@H](Cc2c[nH]c4ccccc24)NC(=O)[C@H](CCCCN)NC(=O)[C@H](Cc2c[nH]cn2)NC(=O)[C@H]([C@@H](C)O)NC(=O)[C@H](CCCNC(=N)N)NC(=O)[C@H](CO)NC3=O)NC(=O)[C@H](CCCCN)NC(=O)[C@H](CC(=O)O)NC(=O)[C@H](CC(N)=O)NC(=O)[C@H](CC(=O)O)NC(=O)[C@@H]2CCCN2C1=O [compound 630] (H-DCLG[Phe(2-Cl)]FRKCIPDNDKCCRPNLVCSRTHKWCKYVF-NH2; disulfide 2-17, 9-23, 16-30) the IC50 (hNav1.7; use-dependent protocol, hNav1.7) was 0.06 µM, the IC50 (hNav1.5; use-dependent protocol, hNav1.5) was 5.8 µM and the IC50 (hNav1.3; use-dependent protocol, hNav1.3) was 0.009 µM.
For CC[C@H](C)[C@@H]1NC(=O)[C@@H]2CSSC[C@@H]3NC(=O)[C@H](C(C)C)NC(=O)[C@H](CC(C)C)NC(=O)[C@H](CC(N)=O)NC(=O)[C@@H]4CCCN4C(=O)[C@H](CCCNC(=N)N)NC(=O)[C@H](CSSC[C@H](NC(=O)[C@@H](N)CC(=O)O)C(=O)N[C@@H](CC(C)C)C(=O)NCC(=O)N[C@@H](Cc4ccccc4)C(=O)N[C@@H](CCSC)C(=O)N[C@@H](CCCNC(=N)N)C(=O)N[C@@H](CCCCN)C(=O)N2)NC(=O)[C@H](CSSC[C@@H](C(=O)N[C@@H](CCCCN)C(=O)N[C@@H](Cc2ccc(O)cc2)C(=O)N[C@@H](Cc2ccccn2)C(=O)N[C@@H](Cc2ccccc2)C(N)=O)NC(=O)[C@H](Cc2c[nH]c4ccccc24)NC(=O)[C@H](CCCCN)NC(=O)[C@H](Cc2c[nH]cn2)NC(=O)[C@H]([C@@H](C)O)NC(=O)[C@H](CCCNC(=N)N)NC(=O)[C@H](CO)NC3=O)NC(=O)[C@H](CCCCN)NC(=O)[C@H](CC(=O)O)NC(=O)[C@H](CC(N)=O)NC(=O)[C@H](CC(=O)O)NC(=O)[C@@H]2CCCN2C1=O [compound 402] (H-DCLGFMRKCIPDNDKCCRPNLVCSRTHKWCKY[2Pal]F-NH2; disulfide 2-17, 9-23, 16-30), the IC50 (hNav1.7; Table 26, use, […]) was 0.12 µM, the IC50 (hNav1.5; Table 26, use, […]) was 8.36 µM and the IC50 (hNav1.3; Table 26, use, […]) was 0.16 µM.
CC[C@H](C)[C@@H]1NC(=O)[C@@H]2CSSC[C@@H]3NC(=O)[C@H](C(C)C)NC(=O)[C@H](CC(C)C)NC(=O)[C@H](CC(N)=O)NC(=O)[C@@H]4CCCN4C(=O)[C@H](CCCNC(=N)N)NC(=O)[C@H](CSSC[C@H](NC(=O)[C@@H](N)CC(=O)O)C(=O)N[C@@H](CC(C)C)C(=O)NCC(=O)N[C@@H](Cc4c[nH]cn4)C(=O)N[C@@H](CCSC)C(=O)N[C@@H](CCCNC(=N)N)C(=O)N[C@@H](CCCCN)C(=O)N2)NC(=O)[C@H](CSSC[C@@H](C(=O)N[C@@H](CCCCN)C(=O)N[C@@H](Cc2ccc(O)cc2)C(=O)N[C@H](C(=O)N[C@@H](Cc2ccccc2)C(N)=O)C(C)C)NC(=O)[C@H](Cc2c[nH]c4ccccc24)NC(=O)[C@H](CCCCN)NC(=O)[C@H](Cc2c[nH]cn2)NC(=O)[C@H]([C@@H](C)O)NC(=O)[C@H](CCCNC(=N)N)NC(=O)[C@H](CO)NC3=O)NC(=O)[C@H](CCCCN)NC(=O)[C@H](CC(=O)O)NC(=O)[C@H](CC(N)=O)NC(=O)[C@H](CC(=O)O)NC(=O)[C@@H]2CCCN2C1=O [SEQ ID NO: 266] (H-DCLGHMRKCIPDNDKCCRPNLVCSRTHKWCKYVF-NH2; disulfide 2-17, 9-23, 16-30) gave an IC50 (hNav1.7; [1]) of 4.74 µM, an IC50 (hNav1.5; [1]) of 6.62 µM and an IC50 (hNav1.3; [1]) of 8.37 µM.
Work on CC[C@H](C)[C@@H]1NC(=O)[C@@H]2CSSC[C@@H]3NC(=O)[C@H](C(C)C)NC(=O)[C@H](CC(C)C)NC(=O)[C@H](CC(N)=O)NC(=O)[C@@H]4CCCN4C(=O)[C@H](CCCNC(=N)N)NC(=O)[C@H](CSSC[C@H](NC(=O)[C@@H](N)CC(=O)O)C(=O)N[C@@H](CC(C)C)C(=O)NCC(=O)N[C@@H](C)C(=O)N[C@@H](CC(C)C)C(=O)N[C@@H](CCCNC(=N)N)C(=O)N[C@@H](CCCCN)C(=O)N2)NC(=O)[C@H](CSSC[C@@H](C(=O)N[C@@H](CCCCN)C(=O)N[C@@H](Cc2ccc(O)cc2)C(=O)N[C@H](C(=O)N[C@@H](Cc2ccccc2)C(=O)O)C(C)C)NC(=O)[C@H](Cc2c[nH]c4ccccc24)NC(=O)[C@H](CCCNC(=N)N)NC(=O)[C@H](Cc2c[nH]cn2)NC(=O)[C@H]([C@@H](C)O)NC(=O)[C@H](CCCNC(=N)N)NC(=O)[C@H](CO)NC3=O)NC(=O)[C@H](CCCCN)NC(=O)[C@H](CC(=O)O)NC(=O)[C@H](Cc2c[nH]cn2)NC(=O)[C@H](CC(=O)O)NC(=O)[C@@H]2CCCN2C1=O [compound 864] (H-DCLGALRKCIPDHDKCCRPNLVCSRTHRWCKYVF-OH; disulfide 2-17, 9-23, 16-30) yielded an IC50 (hNav1.7; use-dependent block, hNav1.7) of over 5 µM, an IC50 (hNav1.5; use-dependent block, hNav1.5) of over 5 µM and an IC50 (hNav1.3; use-dependent block, hNav1.3) of 3.9 µM.
